Article PMC4608799, “Structural and Functional Analysis of Murine Polyomavirus Capsid Proteins Establish the Determinants of Ligand Recognition and Pathogenicity” (PLoS Pathogens, 2015)

What was measured:
[1] = molecular target: T1, RA VP1 (Mouse polyomavirus (strain p16 small-plaque), UniProt P49302); test: concentration-dependent crystal soaking, electron density quantified; format: binding; conditions: 1.5 M ammonium sulfate (competes with the Neu5Ac carboxylate), 20 C crystals, 30 min soak
T1 construct: residues 33-316, homopentamer; N-terminal His-tag cut by thrombin leaving GSHM; pET15b, E. coli BL21

[2] = molecular target: T2, PTA VP1 (Alphapolyomavirus muris, UniProt A0A247D727); test: X-ray crystal structure of complex; conditions: receptor-binding pocket
T2 construct: residues 33-316, homopentamer; N-terminal His-tag cut by thrombin leaving GSHM; pET15b, E. coli BL21

Row | Compound | concentration-dependent crystal soaking, electron density quantified [1] | X-ray crystal structure of complex [2]
1 | CC(=O)N[C@H]1[C@H](O[C@H]2[C@@H](O)[C@@H](CO)O[C@@H](O[C@H]3[C@H](O)[C@@H](O)C(O)O[C@@H]3CO)[C@@H]2O)O[C@H](CO[C@]2(C(=O)O)C[C@H](O)[C@@H](NC(C)=O)[C@H]([C@H](O)[C@H](O)CO)O2)[C@@H](O)[C@@H]1O[C@@H]1O[C@H](CO)[C@H](O)[C@H](O[C@]2(C(=O)O)C[C@H](O)[C@@H](NC(C)=O)[C@H]([C@H](O)[C@H](O)CO)O2)[C@H]1O (some centres unmarked) [DSLNT] | Electron density of GT1a, GD1a, and DSLNT in RA VP1 | –
2 | CC(=O)N[C@H]1[C@H]([C@H](O)[C@H](O)CO)O[C@@](O[C@H](CO)[C@@H](O)[C@@H]2O[C@@](O[C@H]3[C@@H](O)[C@@H](CO)O[C@@H](O[C@H]4[C@H](O)[C@@H](O)C(O)O[C@@H]4CO)[C@@H]3O)(C(=O)O)C[C@H](O)[C@H]2NC(C)=O)(C(=O)O)C[C@@H]1O (some centres unmarked) [GD3, glycan portion of GD3] | – | the crystal structure of PTA with the glycan portion of GD3 shows an identical binding mechanism
